Test results from patent publication US20080317769A1, “Vaccine Composition Comprising Alpha-Galactosylceramide as an Adjuvant For Intranasal Administration” (priority 2005, published 2008).
Entries after “also recorded” stand apart in the source; their conditions may differ.

Assays:
IFN-γ and IL-4 secretion = IFN-γ and IL-4 secretion of spleen and CLN cells cultured with OVA (sandwich ELISA), C57BL/6 mice; type: in vivo; conditions: cells cultured with 500 μg/ml OVA for 4 days, one week after final immunization
Method: It was directly investigated whether α-GalCer nasal vaccine adjuvant skews immune response into Th1 or Th2 immune response. To measure the secretions of cytokines, cells were obtained from spleen and cervical lymph node (CLN) a week after the final immunization. The cells ([…]) were cultured with 500 μg/ml of OVA for 4 days. The secretions of IFN-γ and IL-4 in the culture supernatant were measured by using the mouse IFN-γ and IL-4 OptELA set ELISA kit (BD Pharmigen) according to the manufacturer's instruction.

[1] = system: OVA257-264 pulsed CFSE^high spleen cells; assay: In vivo CTL assay: specific lysis of OVA257-264 pulsed CFSE-high cells by FACS, C57BL/6 mice; conditions: all αGalCer dose groups + OVA intranasal, vs vehicle alone or OVA alone, dose-dependent
Method: Spleen cells were separated from naive C57BL/6 mice, which were pulsed with 1 μM of OVA257-264 at 37° C. for 90 minutes. The pulsed cells were labeled with 20 μM of CFSE (Molecular Probes, USA) at 37° C. for 15 minutes, resulting in OVA257-264 pulsed CFSE^high cells. In the meantime, the unpulsed cells were labeled with 2 μM of CFSE (Molecular Probes, USA) at 37° C. for 15 minutes, resulting in the OVA257-264 unpulsed CFSE^low cells. The equal numbers of peptide-pulsed CFSE^high cells and unpulsed CFSE^low cells were mixed, which were intravenously injected to mice at the number of 2×10^7 cells one week after the final immunization. 24 hours later, specific lysis of peptide-pulsed CFSE^high cell was investigated by using FACS in spleen, mesenteric lymph node (MLN) and cervical lymph node (CLN).

[2] = system: OVA-specific antibody responses; assay: OVA-specific antibody responses after intranasal co-administration of OVA and αGalCer, Balb/c mice; type: in vivo
Method: To investigate whether αGalCer can be used as a strong adjuvant for a nasal vaccine in Balb/c mice, different amounts of αGalCer (0.15, 0.5, 2.0 μg) and 100 μg of OVA were intranasally administered to Balb/c mice by the same manner as described in Example 1, followed by measurement of OVA-specific IgG, OVA-specific IgG1 and IgG2a in serum and OVA-specific IgA responses in the nasal wash and the lung wash.

EG7 tumor cells = assay: EG7 tumor challenge after intranasal immunization with OVA and αGalCer; type: in vivo; conditions: C57BL/6 mice, 3×10^6 EG7 cells s.c., day 14
Method: To confirm whether αGalCer could be used as a nasal vaccine adjuvant inducing anticancer activity, C57BL/6 mice were immunized with 100 μg of OVA alone or together with αGalCer (0.125, 0.5, 2.0 μg) by the intranasal administration three times at one-week intervals. Two weeks after the final immunization, 3×10^6 EG7 tumor cells were subcutaneously inoculated in the left flank of the immunized mice. On the 14th day of the inoculation, the mice were sacrificed and the palpable tumors were weighed.

[3] = system: OT1 cells (OVA specific CD8+ T cells); assay: Intracellular IL-2 and IFN-γ of OT1 cells after OVA257-264 peptide stimulation; type: in vivo, mouse; conditions: OVA + 2.0 μg αGalCer intranasal vs OVA alone; 5 μM OVA257-264 peptide for 6 hours
Method: To confirm whether the activated T-cells were differentiated into fully functional CTL, 2×10^6/ml of cells were further stimulated with 5 μM of OVA257-264 peptide for 6 hours, by the same manner as described in Example 4, and then intracellular IL-2 and IFN-γ levels were measured by using APC-conjugated IL-2 (Clone JES6-5H4, Biolegend Inc., USA) and APC-conjugated IFN-γ mAb (Clone XMG1.2 Biolegend Inc., USA).

[4] = system: P815 tumor cells infected with live PR8 virus; assay: 51Cr release assay for CTL activity against PR8-infected P815 target cells; type: in vivo; conditions: Balb/c mice; inactivated PR8 with or without αGalCer intranasal; splenocytes, 51Cr-labeled PR8-infected P815 targets, 6 hours
Method: To examine the role of αGalCer as an adjuvant of a killed virus, influenza virus A/PR/8/34 (PR8), which was inactivated with formalin, was used as an antigen to examine the anti-virus immune response. Balb/c mice were immunized with indicated amounts (1 μg, 10 μg) of inactivated PR8 alone or together with αGalCer by the intranasal administration twice at two-week intervals. Two weeks after the final immunization, the mice were sacrificed and following experiments were performed.
Single cells, separated from the spleen of the sacrificed mice, were cultured with stimulator cells for 5 days. To obtain stimulator cells, single cells were taken from the spleen of a naïve Balb/c mouse, which was irradiated with γ-ray, resulting in the inactivation of the cells. Then, the inactivated cells were infected with a live PR8 virus. After culturing splenocytes with stimulator cell for five days, effector cells were three-fold diluted serially, followed by further culture with ^51Cr-labeled target cells for 6 hours. Then, the amounts of ^51Cr […] in the culture supernatant were measured. The target cells were prepared by infecting P815 tumor cells (purchased from ATCC) with live PR8 virus and labeled with ^51Cr.

[5] = αGalCer (0.15, 0.5, 2.0 μg) + 100 μg OVA intranasal, vs vehicle alone or OVA alone

Question: `CCCCCCCCCCCCCCCCCCCCCCCCCC(=O)N[C@@H](CO[C@H]1O[C@H](CO)[C@H](O)[C@H](O)[C@H]1O)[C@H](O)[C@H](O)CCCCCCCCCCCCCC` [αGalCer, alpha-galactosylceramide] was tested. Which “secretions of IFN-γ and IL-4 in spleen and CLN” value (IFN-γ and IL-4 secretion) did it give?
Answer: The value was “significantly increased”.

Question: What about the “CTL cytotoxicity (specific lysis) in spleen, MLN and CLN” value [1] of the same compound?
Answer: The value was “dose-dependent lytic activity”.

Question: What about the “CTL cytotoxicity (specific lysis) in spleen, MLN and CLN” value ([1]; listed as α-GalCer) of the same compound?
Answer: The value was “higher cytotoxicity”.

Question: And the “IgG antibody level in serum, comparison of αGalCer doses” value ([2]; 0.5 μg of αGalCer intranasally coadministered with OVA)?
Answer: The value was “highest level of IgG antibody”.

Question: What about the “OVA-specific IgA responses in the nasal wash and the lung wash” value [2, 5] of the same compound?
Answer: Its value is “higher OVA-specific IgA responses”.

Question: And the “OVA-specific IgG response in serum” value [2, 5]?
Answer: Its value is “higher OVA-specific IgG response”.

Question: What about the “OVA-specific IgG1 and IgG2a titers” value ([2]; αGalCer + OVA intranasal, serum) of the same compound?
Answer: The value was “increases”.

Question: What about the “fraction of mice with tumor masses” value (EG7 tumor cells; 0.125 μg αGalCer + 100 μg OVA intranasal) of the same compound?
Answer: The value was “⅓”.

Question: And the tumor formation (EG7 tumor cells; 0.5 μg and 2.0 μg αGalCer together with OVA intranasal)?
Answer: Its tumor formation is “completely inhibited”.

Question: And the “levels of OT1 cells secreting IL-2 and IFN-γ” value [3]?
Answer: The value was “higher”.

Question: And the “target cell-specific lytic activity” value [4]?
Answer: Its value is “observed only in mice concurrently treated with αGalCer; also recorded: strong lytic activity”.
